Experiment [1] has as its system A498. Kind of experiment: In vitro cytological inhibitory activity (XTT). It counts as cell-based. To be noted: Homo sapiens, 72 hrs. On the procedure: A498: Human renal carcinoma cell line.
1. Preparation of agents and compounds:
• 1.1 Preparation of phosphoric acid buffering solution (PBS): 8 g NaCl, 0.2 g KCl, 1.44 g Na2HPO4 and 0.24 g KH2PO4 were weighed and added to 800 mL ultrapure water. The mixture was adjusted to pH=7.4, and ultrapure water was added to the metered volume of IL. Then the autoclaving was conducted for 20 mins. • 1.2 Preparation of XTT detection working solution: 100 mg (2,3-Bis-(2-methoxy-4-nitro-5-sulfophenyl)-2H-tetrazolium-5-carboxanilide); 2,3-bis(2-methoxy-4-nitro-5-sulfophenyl)-5-[(phenylamino)carbonyl]-2H-tetrazolium hydroxide (XTT) powder was weighed, and dissolved under protection from light 300 mL of phenol red-free and serum-free RPMI1640 culture, which had been warmed up to 50° C. The resulting mixture was filtered, packaged and used immediately or in one week. The complete process was conducted under protection from light. • 1.3 Preparation of the test compound • Preparation of the stock solution of the test compound: The test compound powder was dissolved in DMSO in a concentration of 10 mM. • Preparation of the gradiently diluted solution of the test compound: 10 mM of the stock solution of the test compound was successively and gradiently diluted with DMSO by 4 folds for 10 concentrations. […]

Experiment [2] concerns the target Adrenergic α2A (Homo sapiens (Human), UniProt P08913). Kind of experiment: Radioligand binding assay No. 203620. To be noted: test substance 10 μM, read-out: Inhibitory rate (%), Adrenergic α2A.
The test system of experiment [3] is non-kinase drug target ligands listed in Table 5. Kind of experiment: Drug target radioligand competitive binding assay, whole panel of Table 5. To be noted: test substance 10 μM, summary of Table 5.
Experiment [4] addresses Dopamine D1 (Homo sapiens (Human), UniProt P21728). Kind of experiment: Radioligand binding assay No. 219500. To be noted: test substance 10 μM, read-out: Inhibitory rate (%), Dopamine D1.
In experiment [5] the target is Transporter, Dopamine (DAT) (Homo sapiens (Human), UniProt Q01959). Kind of experiment: Radioligand binding assay No. 220320. To be noted: test substance 10 μM, read-out: Inhibitory rate (%), Transporter, Dopamine (DAT).
Transporter, Dopamine (DAT), sequence (Q01959 whole entry): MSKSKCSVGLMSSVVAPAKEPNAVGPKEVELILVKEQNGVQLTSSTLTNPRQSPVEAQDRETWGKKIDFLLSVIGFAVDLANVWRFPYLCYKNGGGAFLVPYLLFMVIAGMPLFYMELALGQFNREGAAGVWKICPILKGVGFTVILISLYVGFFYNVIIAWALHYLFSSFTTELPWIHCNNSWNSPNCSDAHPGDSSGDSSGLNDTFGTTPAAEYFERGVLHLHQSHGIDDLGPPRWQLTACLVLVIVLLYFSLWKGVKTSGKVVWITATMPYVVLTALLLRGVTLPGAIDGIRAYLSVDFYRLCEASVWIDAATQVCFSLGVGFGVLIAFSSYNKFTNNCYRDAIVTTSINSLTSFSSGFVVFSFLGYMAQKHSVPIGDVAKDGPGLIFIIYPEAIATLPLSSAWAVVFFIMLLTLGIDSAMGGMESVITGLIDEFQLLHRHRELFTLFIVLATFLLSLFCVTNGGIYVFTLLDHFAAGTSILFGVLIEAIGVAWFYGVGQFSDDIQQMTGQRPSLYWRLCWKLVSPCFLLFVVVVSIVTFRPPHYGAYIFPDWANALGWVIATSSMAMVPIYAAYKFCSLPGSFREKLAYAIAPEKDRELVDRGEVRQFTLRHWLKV
For experiment [6], the target named is Opiate κ(OP2, KOP) (Homo sapiens (Human), UniProt P41145). Kind of experiment: Radioligand binding assay No. 260210. As to conditions: test substance 10 μM, read-out: Inhibitory rate (%), Opiate κ(OP2, KOP).
Opiate κ(OP2, KOP), sequence (P41145 whole entry): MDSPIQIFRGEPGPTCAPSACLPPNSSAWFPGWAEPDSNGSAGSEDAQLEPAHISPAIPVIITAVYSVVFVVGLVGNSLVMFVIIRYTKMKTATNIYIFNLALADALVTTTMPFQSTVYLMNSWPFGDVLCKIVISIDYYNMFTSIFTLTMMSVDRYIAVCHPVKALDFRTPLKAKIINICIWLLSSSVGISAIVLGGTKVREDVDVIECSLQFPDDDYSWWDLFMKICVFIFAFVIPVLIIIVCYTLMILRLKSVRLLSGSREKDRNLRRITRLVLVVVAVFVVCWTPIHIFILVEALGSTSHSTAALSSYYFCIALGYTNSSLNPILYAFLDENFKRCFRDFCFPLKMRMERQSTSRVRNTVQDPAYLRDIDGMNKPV
The target of experiment [7] is Opiate μ(OP3, MOP) (Homo sapiens (Human), UniProt P35372). Kind of experiment: Radioligand binding assay No. 260410. As to conditions: test substance 10 μM, read-out: Inhibitory rate (%), Opiate μ(OP3, MOP).
Opiate μ(OP3, MOP), sequence (P35372 whole entry): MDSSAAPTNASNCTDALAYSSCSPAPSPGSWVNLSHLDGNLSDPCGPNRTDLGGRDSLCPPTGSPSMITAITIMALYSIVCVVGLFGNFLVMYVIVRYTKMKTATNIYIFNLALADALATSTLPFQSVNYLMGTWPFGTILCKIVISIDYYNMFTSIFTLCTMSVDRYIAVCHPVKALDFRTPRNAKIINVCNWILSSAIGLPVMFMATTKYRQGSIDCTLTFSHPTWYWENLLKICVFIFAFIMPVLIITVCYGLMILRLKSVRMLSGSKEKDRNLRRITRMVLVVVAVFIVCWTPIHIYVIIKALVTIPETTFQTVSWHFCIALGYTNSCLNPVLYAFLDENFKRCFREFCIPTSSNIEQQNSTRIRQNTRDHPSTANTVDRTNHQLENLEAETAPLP
Experiment [8] addresses Adrenergic β1 (Homo sapiens (Human), UniProt P08588). Kind of experiment: Radioligand binding assay No. 204010. To be noted: test substance 10 μM, read-out: Inhibitory rate (%), Adrenergic β1.
In experiment [9] the target is Dopamine D2S (Homo sapiens (Human), UniProt P14416). Kind of experiment: Radioligand binding assay No. 219700. As to conditions: test substance 10 μM, read-out: Inhibitory rate (%), Dopamine D2S.
Experiment [10] concerns the target Muscarinic M3 (Homo sapiens (Human), UniProt P20309). Kind of experiment: Radioligand binding assay No. 252810. As to conditions: test substance 10 μM, read-out: Inhibitory rate (%), Muscarinic M3.
The target in experiment [11] is Dopamine D4.2 (Homo sapiens (Human), UniProt P21917, DEL265-296). Kind of experiment: Radioligand binding assay No. 219900. As to conditions: test substance 10 μM, read-out: Inhibitory rate (%), Dopamine D4.2.
Dopamine D4.2, sequence (P21917 other isoform, or with tags, fused parts or gaps del 265-296): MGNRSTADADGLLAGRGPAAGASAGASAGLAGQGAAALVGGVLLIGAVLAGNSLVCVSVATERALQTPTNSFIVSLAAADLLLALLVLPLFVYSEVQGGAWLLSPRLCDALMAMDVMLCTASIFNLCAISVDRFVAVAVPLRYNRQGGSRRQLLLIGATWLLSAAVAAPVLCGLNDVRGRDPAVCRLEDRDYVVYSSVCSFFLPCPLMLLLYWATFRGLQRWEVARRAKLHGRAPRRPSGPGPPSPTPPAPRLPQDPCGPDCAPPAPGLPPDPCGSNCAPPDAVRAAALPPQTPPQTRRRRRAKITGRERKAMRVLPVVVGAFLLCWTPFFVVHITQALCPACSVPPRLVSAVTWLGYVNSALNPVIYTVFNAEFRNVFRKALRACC
The subject of experiment [12] is Glutamate, NMDA, Agonism. Kind of experiment: Radioligand binding assay No. 232810. To be noted: test substance 10 μM; rat.
The target in experiment [13] is Transporter, Serotonin (5-Hydroxytryptamine) (SERT) (Homo sapiens (Human), UniProt P31645). Kind of experiment: Radioligand binding assay No. 274030. To be noted: test substance 10 μM, read-out: Inhibitory rate (%), Transporter, Serotonin (5-Hydroxytryptamine) (SERT).
Transporter, Serotonin (5-Hydroxytryptamine) (SERT), sequence (P31645 whole entry): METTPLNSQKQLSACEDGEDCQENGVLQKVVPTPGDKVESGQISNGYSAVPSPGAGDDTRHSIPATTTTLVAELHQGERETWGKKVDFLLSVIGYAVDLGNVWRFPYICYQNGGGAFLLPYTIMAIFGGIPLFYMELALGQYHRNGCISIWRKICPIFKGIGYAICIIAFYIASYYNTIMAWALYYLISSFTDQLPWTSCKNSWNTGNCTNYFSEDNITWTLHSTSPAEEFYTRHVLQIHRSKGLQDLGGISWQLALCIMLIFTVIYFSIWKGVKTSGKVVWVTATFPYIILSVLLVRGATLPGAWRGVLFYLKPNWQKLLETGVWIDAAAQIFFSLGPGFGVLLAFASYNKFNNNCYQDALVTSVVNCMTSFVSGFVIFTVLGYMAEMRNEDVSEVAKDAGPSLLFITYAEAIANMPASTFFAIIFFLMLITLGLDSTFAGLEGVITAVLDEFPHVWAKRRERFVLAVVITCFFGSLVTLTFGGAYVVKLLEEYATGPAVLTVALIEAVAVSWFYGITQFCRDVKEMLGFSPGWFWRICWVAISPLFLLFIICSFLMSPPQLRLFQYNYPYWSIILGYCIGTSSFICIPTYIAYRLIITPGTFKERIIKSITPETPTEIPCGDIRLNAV
The subject of experiment [14] is Phorbol Ester. Kind of experiment: Radioligand binding assay No. 264500. To be noted: test substance 10 μM; mouse.
For experiment [15], the system named is GABAA, Flunitrazepam, Central. Kind of experiment: Radioligand binding assay No. 226600. As to conditions: test substance 10 μM; rat.
Experiment [16] concerns the target Sigmaσ1 (Homo sapiens (Human), UniProt Q99720). Kind of experiment: Radioligand binding assay No. 278110. As to conditions: test substance 10 μM, read-out: Inhibitory rate (%), Sigmaσ1.
The target in experiment [17] is Epidermal Growth Factor (EGF) (Homo sapiens (Human), UniProt P00533). Kind of experiment: Radioligand binding assay No. 225510. To be noted: test substance 10 μM, read-out: Inhibitory rate (%), Epidermal Growth Factor (EGF).
Epidermal Growth Factor (EGF), sequence (P00533 25-1210): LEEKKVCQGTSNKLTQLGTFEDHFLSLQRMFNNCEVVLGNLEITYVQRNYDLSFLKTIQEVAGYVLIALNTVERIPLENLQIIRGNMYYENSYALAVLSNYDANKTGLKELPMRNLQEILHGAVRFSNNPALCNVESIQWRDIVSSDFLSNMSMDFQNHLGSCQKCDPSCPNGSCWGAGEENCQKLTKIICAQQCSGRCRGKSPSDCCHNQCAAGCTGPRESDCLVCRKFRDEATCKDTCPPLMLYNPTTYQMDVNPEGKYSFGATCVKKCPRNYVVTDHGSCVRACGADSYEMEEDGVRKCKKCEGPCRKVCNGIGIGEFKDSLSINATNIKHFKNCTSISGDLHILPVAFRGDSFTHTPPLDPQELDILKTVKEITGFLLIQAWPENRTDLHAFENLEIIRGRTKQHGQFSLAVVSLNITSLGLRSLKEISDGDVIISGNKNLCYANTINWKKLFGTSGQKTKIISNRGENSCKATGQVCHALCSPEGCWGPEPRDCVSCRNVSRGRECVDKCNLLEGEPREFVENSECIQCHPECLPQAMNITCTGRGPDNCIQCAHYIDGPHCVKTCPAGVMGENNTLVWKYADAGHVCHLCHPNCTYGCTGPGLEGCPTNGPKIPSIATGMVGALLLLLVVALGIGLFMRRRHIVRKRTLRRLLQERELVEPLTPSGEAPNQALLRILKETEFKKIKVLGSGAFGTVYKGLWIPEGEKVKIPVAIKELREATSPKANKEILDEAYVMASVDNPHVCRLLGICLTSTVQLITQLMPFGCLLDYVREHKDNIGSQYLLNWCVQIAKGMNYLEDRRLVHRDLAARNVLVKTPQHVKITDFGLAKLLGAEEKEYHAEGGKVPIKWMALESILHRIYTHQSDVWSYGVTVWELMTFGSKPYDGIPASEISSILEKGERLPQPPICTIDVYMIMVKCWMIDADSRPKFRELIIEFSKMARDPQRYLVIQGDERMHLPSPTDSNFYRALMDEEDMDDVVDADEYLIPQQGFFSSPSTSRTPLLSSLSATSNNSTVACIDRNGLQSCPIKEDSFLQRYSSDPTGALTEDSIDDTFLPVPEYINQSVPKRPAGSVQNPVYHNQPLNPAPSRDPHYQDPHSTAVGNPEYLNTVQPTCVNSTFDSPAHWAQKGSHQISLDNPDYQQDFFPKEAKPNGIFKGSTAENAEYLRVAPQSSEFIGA

Muscarinic M3, sequence (P20309 whole entry): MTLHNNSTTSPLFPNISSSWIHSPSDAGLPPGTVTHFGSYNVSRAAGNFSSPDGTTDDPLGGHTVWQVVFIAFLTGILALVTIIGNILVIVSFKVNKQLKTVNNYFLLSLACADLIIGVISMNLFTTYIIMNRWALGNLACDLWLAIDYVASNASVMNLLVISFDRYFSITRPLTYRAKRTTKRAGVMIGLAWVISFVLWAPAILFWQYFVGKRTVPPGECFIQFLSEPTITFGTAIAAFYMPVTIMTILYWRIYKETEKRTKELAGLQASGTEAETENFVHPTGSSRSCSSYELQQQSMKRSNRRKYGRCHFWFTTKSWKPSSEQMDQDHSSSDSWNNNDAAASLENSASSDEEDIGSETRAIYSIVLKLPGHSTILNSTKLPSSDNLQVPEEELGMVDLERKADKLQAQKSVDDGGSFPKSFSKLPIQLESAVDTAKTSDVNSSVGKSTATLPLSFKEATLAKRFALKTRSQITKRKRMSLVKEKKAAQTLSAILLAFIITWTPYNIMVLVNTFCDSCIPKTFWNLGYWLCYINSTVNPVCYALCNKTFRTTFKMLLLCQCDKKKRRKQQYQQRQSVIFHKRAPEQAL
Sigmaσ1, sequence (Q99720 whole entry): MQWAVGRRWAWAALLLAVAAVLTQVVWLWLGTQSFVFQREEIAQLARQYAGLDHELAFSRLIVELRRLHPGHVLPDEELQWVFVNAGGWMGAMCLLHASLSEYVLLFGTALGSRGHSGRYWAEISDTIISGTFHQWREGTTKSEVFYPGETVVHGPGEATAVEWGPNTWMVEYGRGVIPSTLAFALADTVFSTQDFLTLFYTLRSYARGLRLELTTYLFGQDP
Adrenergic α2A, sequence (P08913 whole entry): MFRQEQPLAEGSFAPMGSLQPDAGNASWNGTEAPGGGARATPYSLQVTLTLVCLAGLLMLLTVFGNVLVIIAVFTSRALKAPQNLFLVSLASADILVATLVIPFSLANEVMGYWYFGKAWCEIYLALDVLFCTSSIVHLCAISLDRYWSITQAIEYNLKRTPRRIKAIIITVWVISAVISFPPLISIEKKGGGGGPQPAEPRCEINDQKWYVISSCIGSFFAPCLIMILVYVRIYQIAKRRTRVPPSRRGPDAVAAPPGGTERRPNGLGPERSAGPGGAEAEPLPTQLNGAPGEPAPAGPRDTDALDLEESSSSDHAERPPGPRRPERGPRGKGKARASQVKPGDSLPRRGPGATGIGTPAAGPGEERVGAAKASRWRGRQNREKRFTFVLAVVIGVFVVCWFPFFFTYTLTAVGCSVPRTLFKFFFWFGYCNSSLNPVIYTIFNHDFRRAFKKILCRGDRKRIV

Consider `Nc1ccc(-c2ccc3ncc4c(=O)[nH]c(=O)n(-c5cccc(C(F)(F)F)c5)c4c3n2)cn1` [Compound 5, 9-(6-aminopyridin-3-yl)-1-(3-(trifluoromethyl)phenyl)pyrimido[5,4-c][1,5]naphthyridine-2,4(1H,3H)-dione], for which the concentration for half-maximal inhibition (IC50) (as a rule, the concentration that gives 50% inhibition) in [1] is 83.7 nM. Further, the inhibition at 10 µM amounted to 19% in experiment [2]; 21% in experiment [4]; 1% in [5]; 10% in experiment [6]; 2% in experiment [7]; 0% in [8]. Also, the inhibition at 10 µM was found to be 14% in experiment [9]; 13% in [10]; 12% in experiment [11]; 6% in experiment [13]; 13% in [16]; 11% in experiment [17]. For the same compound, the “inhibitory rates on the listed non-kinase drug target ligands” value in [3] was “less than 50%”. For the same compound, the “Inhibitory rate (%), Glutamate, NMDA, Agonism” value in experiment [12] is on record as 29%. Also, the “Inhibitory rate (%), Phorbol Ester” value in experiment [14] is 27%. In experiment [15], the “Inhibitory rate (%), GABAA, Flunitrazepam, Central” value amounted to 34%.

(Values after patent US9365572B2, “PI3K and/or mTOR inhibitor” (XUANZHU PHARMA CO., LTD., priority 2012, dated 2016).)
